Test system: Qurt medaka
Assay: Detection of sexual differentiation-disrupting activity: eggs bred in test solution, genotypic sex by pigment, phenotypic sex by RT-PCR of female-specific Gene 5
Format: in vivo, medaka (Oryzias latipes)
Conditions: fries hatched from eggs treated with 1 ppb 17 β-estradiol
Experimental: Pairs of mature Qurt medakas each consisting of one male and one female were bred in 3 L of green water (purified water containing chlorella from green algae) at 25° C. under conditions of a light period for 14 hours and a dark period for 10 hours. They were fed with TetraMin three to five times a day setting the amount of TetraMin such that it was consumed within three to five minutes,;and then spawned. Eggs resulted from five pairs were placed in a Petri dish immediately after spawning, separated each other using tweezers in tap water from which chlorine had been removed and washed. The water was replaced by a 1 -ppb 17 β-estradiol (E2) aqueous solution containing 0.1% dimethyl sulfoxide. The mixture was dispensed into wells of 96-well round bottom microplate (#3797, Corning) which had been extensively washed with ultrapure water such that each well contained one egg. After covering with a lid, the microplate was incubated in an incubator at 25° C. On the third day from the start of incubation, males and females were distinguished by examining the yellow pigment which is expressed in a male-specific manner as autofluorescence using a fluorescence microscope (Nikon) The incubation was further continued, and fries then hatched on the 7th to 9th day after spawning. Fries were collected on the 12th day after spawning (the 3rd to 5th day after hatching), then soaked in RNAlater (#7021, Ambion) and stored at −80° C. RNAs were extracted from the fries using StrataPrep Total RNA Miniprep Kit (#400711, Stratagene). The test samples were soaked in a lysis solution attached to the kit, and homogenized in 1.5 -mL tubes using a pellet mixer (Urin Seisakusho). Then, extraction was completed according to the manual attached to the kit. The extracted RNAs were subjected to TaKaRa One Step RNA PCR Kit (AMV) (Takara Shuzo). 1st PCRs were carried out using a pair of primers F1 (SEQ ID NO: 30) and R1 (SEQ ID NO: 31) which is used to amplify a region of 729 bp in Gene 5 (SEQ ID NO: 5), a gene expressed in a female-specific manner. […]

C[C@]12CC[C@@H]3c4ccc(O)cc4CC[C@H]3[C@@H]1CC[C@@H]2O [17 β-estradiol]
genotypic females for which expression of Gene 6 was not observed: two out of the five | genotypic males for which expression of Gene 5 was observed: two out of the five | sexual differentiation (genotypic vs phenotypic sex): the sexual differentiation was disrupted
